Peptide text beside a SMILES is read from it.
Experiments:
HDAC2 = target: T1, HDAC2 (Homo sapiens, UniProt Q92769); experiment: HDAC2 inhibition, full IC50 measurement (Reaction Biology; fluorogenic p53 peptide RHKK(Ac)AMC); assay type: biochemical
T1 construct: purchased Reaction Biology Corporation (assay run by the CRO)
How it was run: (§1)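 Reaction: enzyme plus acoustically dispensed peptide inhibitor, 50 μM RHKK(Ac)AMC substrate, pH 8.0 Tris buffer with BSA and 1% DMSO, 1 h, 30 °C. Duplicates averaged.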

HDAC1 = target: T2, HDAC1 (Homo sapiens, UniProt Q13547); experiment: HDAC1 inhibition, full IC50 measurement (Reaction Biology; fluorogenic p53 peptide RHKK(Ac)AMC); assay type: biochemical; settings: t1/t2 replicates
T2 construct: purchased Reaction Biology Corporation (assay run by the CRO)
How it was run: as §1

T1 sequence (Q92769 whole entry): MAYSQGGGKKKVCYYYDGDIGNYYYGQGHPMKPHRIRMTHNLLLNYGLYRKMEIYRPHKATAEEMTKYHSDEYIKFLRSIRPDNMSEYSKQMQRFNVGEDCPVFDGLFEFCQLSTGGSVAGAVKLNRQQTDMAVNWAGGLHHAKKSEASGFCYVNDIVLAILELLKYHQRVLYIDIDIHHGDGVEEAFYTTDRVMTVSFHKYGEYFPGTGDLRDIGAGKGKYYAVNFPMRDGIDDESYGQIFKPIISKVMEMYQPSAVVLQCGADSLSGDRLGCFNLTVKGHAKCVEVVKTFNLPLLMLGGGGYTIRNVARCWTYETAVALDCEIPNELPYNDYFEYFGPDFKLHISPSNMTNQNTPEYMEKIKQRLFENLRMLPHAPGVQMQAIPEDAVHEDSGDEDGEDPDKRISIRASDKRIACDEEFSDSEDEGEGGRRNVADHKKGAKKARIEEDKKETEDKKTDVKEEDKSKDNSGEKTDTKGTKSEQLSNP
T2 sequence (Q13547 whole entry): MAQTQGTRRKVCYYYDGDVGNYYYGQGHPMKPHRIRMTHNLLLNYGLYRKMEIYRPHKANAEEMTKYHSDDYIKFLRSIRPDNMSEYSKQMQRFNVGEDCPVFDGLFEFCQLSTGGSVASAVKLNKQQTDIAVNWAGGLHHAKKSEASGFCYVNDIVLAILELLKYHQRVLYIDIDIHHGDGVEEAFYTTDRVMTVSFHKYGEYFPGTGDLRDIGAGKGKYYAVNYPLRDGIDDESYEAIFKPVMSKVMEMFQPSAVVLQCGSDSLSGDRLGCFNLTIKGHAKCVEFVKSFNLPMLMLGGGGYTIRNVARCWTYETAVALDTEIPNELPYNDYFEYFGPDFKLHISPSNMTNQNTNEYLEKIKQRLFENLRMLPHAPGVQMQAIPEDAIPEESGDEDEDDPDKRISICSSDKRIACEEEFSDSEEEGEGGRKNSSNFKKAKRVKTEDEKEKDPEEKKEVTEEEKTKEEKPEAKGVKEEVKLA

CSCC[C@H]1NC(=O)[C@@H](CO)NC(=O)[C@H](CC(N)=O)NC(=O)[C@H](CC(=O)O)NC(=O)[C@@H]([C@H](C)O)NC(=O)[C@H](Cc2c[nH]c3ccccc23)NC(=O)[C@H](CCCCCS)NC(=O)[C@H](CCCCN)NC(=O)[C@@H](CC(=O)O)NC1=O [des2.1.1, SHA-Trp-dThr-Asp-Asn-dSer-dMet-dAsp-Lys] (HELM PEPTIDE1{D.N.[dS].[dM].[dD].K.[O=C([C@H](CCCCCS)N[*:1])[*:2]].W.[dT]}$PEPTIDE1,PEPTIDE1,1:R1-9:R2$$$V2.0)
HDAC2 activity raw data (signal) (HDAC2; Conc. 1.00E-05 M, t1): -452 | HDAC2 activity raw data (signal) (HDAC2; Conc. 1.00E-05 M, t2): -1036 | HDAC2 activity raw data (signal) (HDAC2; Conc. 1.11E-06 M, t1): 33890 | HDAC2 activity raw data (signal) (HDAC2; Conc. 1.11E-06 M, t2): 38279 | HDAC2 activity raw data (signal) (HDAC2; Conc. 1.23E-07 M, t1): 186095 | HDAC2 activity raw data (signal) (HDAC2; Conc. 1.23E-07 M, t2): 182790 | HDAC2 activity raw data (signal) (HDAC2; Conc. 1.37E-08 M, t1): 599694 | HDAC2 activity raw data (signal) (HDAC2; Conc. 1.37E-08 M, t2): 552663 | HDAC2 activity raw data (signal) (HDAC2; Conc. 1.52E-09 M, t1): 969892 | HDAC2 activity raw data (signal) (HDAC2; Conc. 1.52E-09 M, t2): 886346 | HDAC2 activity raw data (signal) (HDAC2; Conc. 3.33E-06 M, t1): 19780 | HDAC2 activity raw data (signal) (HDAC2; Conc. 3.33E-06 M, t2): 13124 | HDAC2 activity raw data (signal) (HDAC2; Conc. 3.70E-07 M, t1): 88233 | HDAC2 activity raw data (signal) (HDAC2; Conc. 3.70E-07 M, t2): 84596 | HDAC2 activity raw data (signal) (HDAC2; Conc. 4.12E-08 M, t1): 374430 | HDAC2 activity raw data (signal) (HDAC2; Conc. 4.12E-08 M, t2): 356371 | HDAC2 activity raw data (signal) (HDAC2; Conc. 4.57E-09 M, t1): 827090 | HDAC2 activity raw data (signal) (HDAC2; Conc. 4.57E-09 M, t2): 782443 | HDAC2 activity raw data (signal) (HDAC2; Conc. 5.08E-10 M, t1): 1119506 | HDAC2 activity raw data (signal) (HDAC2; Conc. 5.08E-10 M, t2): 1036443 | IC50 (HDAC2; figure legends, Supp. Table 1, read-out: HDAC2 IC50): 16.3 nM | HDAC1 activity raw data (signal) (HDAC1; peptide conc. 1.00E-05 M, listed as des2.1.1_t1): -3296 | HDAC1 activity raw data (signal) (HDAC1; peptide conc. 1.00E-05 M, listed as des2.1.1_t2): -5 | HDAC1 activity raw data (signal) (HDAC1; peptide conc. 1.11E-06 M, listed as des2.1.1_t1): 15027 | HDAC1 activity raw data (signal) (HDAC1; peptide conc. 1.11E-06 M, listed as des2.1.1_t2): 19517 | HDAC1 activity raw data (signal) (HDAC1; peptide conc. 1.23E-07 M, listed as des2.1.1_t1): 121250 | HDAC1 activity raw data (signal) (HDAC1; peptide conc. 1.23E-07 M, listed as des2.1.1_t2): 94143 | HDAC1 activity raw data (signal) (HDAC1; peptide conc. 1.37E-08 M, listed as des2.1.1_t1): 426941 | HDAC1 activity raw data (signal) (HDAC1; peptide conc. 1.37E-08 M, listed as des2.1.1_t2): 417070 | HDAC1 activity raw data (signal) (HDAC1; peptide conc. 1.52E-09 M, listed as des2.1.1_t1): 888087 | HDAC1 activity raw data (signal) (HDAC1; peptide conc. 1.52E-09 M, listed as des2.1.1_t2): 854689 | HDAC1 activity raw data (signal) (HDAC1; peptide conc. 3.33E-06 M, listed as des2.1.1_t1): 5417 | HDAC1 activity raw data (signal) (HDAC1; peptide conc. 3.33E-06 M, listed as des2.1.1_t2): 8523 | HDAC1 activity raw data (signal) (HDAC1; peptide conc. 3.70E-07 M, listed as des2.1.1_t1): 47109 | HDAC1 activity raw data (signal) (HDAC1; peptide conc. 3.70E-07 M, listed as des2.1.1_t2): 41206 | HDAC1 activity raw data (signal) (HDAC1; peptide conc. 4.12E-08 M, listed as des2.1.1_t1): 257706 | HDAC1 activity raw data (signal) (HDAC1; peptide conc. 4.12E-08 M, listed as des2.1.1_t2): 221039 | HDAC1 activity raw data (signal) (HDAC1; peptide conc. 4.57E-09 M, listed as des2.1.1_t1): 716596 | HDAC1 activity raw data (signal) (HDAC1; peptide conc. 4.57E-09 M, listed as des2.1.1_t2): 664253 | HDAC1 activity raw data (signal) (HDAC1; peptide conc. 5.08E-10 M, listed as des2.1.1_t1): 1042274 | HDAC1 activity raw data (signal) (HDAC1; peptide conc. 5.08E-10 M, listed as des2.1.1_t2): 995234

Source: PMC8185074, “Anchor extension: a structure-guided approach to design cyclic peptides targeting enzyme active sites” (Nature Communications, 2021)
